According to patent US10259810B2, “N-sulfonylated pyrazolo[3,4-b]pyridin-6-carboxamides and method of use” (AbbVie S.à.r.l., priority 2015, dated 2019):

How the values were obtained:
[1] = target: T1, CFTR ΔF508 (Homo sapiens, UniProt P13569, DEL508-508); test: Acute TECC assay, primary bronchial epithelial cells of CF patients homozygous for CFTR ΔF508, with and without co-corrector; assay type: cell-based; conditions: 24 h, Ieq based on maximum current, normalized to DMSO and positive control; for % Activity at 3 μM (Ieq*): 3 μM compound
T1 construct: bronchial epithelial cells isolated from CF patients homozygous for the CFTR ΔF508 mutation; McGill University; Asterand; University of North Carolina hAEC-CF; host or cells: primary human bronchial epithelial cells from CF patients homozygous for ΔF508, differentiated at air-liquid interface
Experimental: Primary Bronchial Epithelial Cells Protocol
The TECC (Tranepithelial Clamp Circuit, EP-design) assay measures the functionality of the cystic fibrosis Transmembrane Conductance regulator (CFTR) by measuring the short circuit current (Isc) generated over the basolateral and apical membrane of lung epithelial cells. In TECC the transepithelial potential PD and transepithelial resistance (Rt) are measured in an open circuit and transformed to Ieq using Ohm's law. 24 Wells can be measured simultaneously allowing a higher throughput compared to Ussing chambers.
For this purpose, bronchial epithelial cells isolated from CF patients homozygous for the CFTR ΔF508 mutation (hAEC-CF, Epithelix, Geneva, Switzerland; McGill University, Montreal, Qc; Asterand, Detroit, Mich.; University of North Carolina, Chapel Hill, N.C.) are plated on type IV collagen-coated Transwell® supports (Costar). Human airway epithelia are generated by provision of an air-liquid interface for 21 days to form well-differentiated polarized cultures that resemble in vivo pseudo-stratified ciliated epithelium (Fulcher, M. L., Gabriel, S., Burns, K. A., Yankaskas, J. R., Randell, S. H., 2005. Well-differentiated human airway epithelial cell cultures. Methods Mol. Med. 107, 183-206). The differentiated cells are treated with test corrector compound(s) (corrector alone or in combination with co-corrector, 4-[(2R,4R)-4-({[1-(2,2-difluoro-1,3-benzodioxol-5-yl)cyclopropyl]carbonyl}amino)-7-methoxy-3,4-dihydro-2H-chromen-2-yl]benzoic acid (“acute”) or test corrector compounds, co-corrector and potentiator, N-(3-carbamoyl-5,5,7,7-tetramethyl-4,7-dihydro-5H-thieno[2,3-c]pyran-2-yl)-1H-pyrazole-5-carboxamide (“chronic”) for 24 hours basolaterally to allow sufficient expression of properly folded CFTR protein on the membrane. All compound plates contained negative controls (DMSO) and positive controls (0.15 μM, 4-[(2R,4R)-4-({[1-(2,2-difluoro-1,3-benzodioxol-5-yl)cyclopropyl]carbonyl}amino)-7-(difluoromethoxy)-3,4-dihydro-2H-chromen-2-yl]benzoic acid).
For electrophysiological recording of the “acute” experiments, the human airway epithelia are mounted in the TECC heating plate and kept at 37° C. The epithelia are bathed in a NaCl-Ringer solution (120 mM NaCl, 25 mM NaHCO3, 1.2 mM CaCl2, 1.2 mM MgCl2, 0.8 mM KH2PO4, 0.8 mM K2HPO4, pH 7.4, 5 mM glucose) on both the basolateral and apical sides. Apical amiloride is used to inhibit the endogenous epithelial sodium channel (ENaC) currents while forskolin is applied on both apical and basolateral side to stimulate CFTR. CFTR activity is measured by addition of forskolin followed by addition of a potentiator, N-(3-carbamoyl-5,5,7,7-tetramethyl-4,7-dihydro-5H-thieno[2,3-c]pyran-2-yl)-1H-pyrazole-5-carboxamide, on both sides. The potentiator, 3-amino-N-[(2S)-2-hydroxypropyl]-5-{[4-(trifluoromethoxy)phenyl]sulfonyl}pyridine-2-carboxamide, was used in place of N-(3-carbamoyl-5,5,7,7-tetramethyl-4,7-dihydro-5H-thieno[2,3-c]pyran-2-yl)-1H-pyrazole-5-carboxamide in some assays. Measurements are done during a 20 minute timeframe with recordings every 2 minutes. […] Inhibitor-172, an inhibitor specific for CFTR, is used to test the specificity of the tested compounds. Raw data were normalized to percentage activity values using the equation: 100×(Sample−Negative control)/(Positive control−Negative Control).

[2] = target: T2, ΔF508-CFTR (Homo sapiens, UniProt P13569, DEL508-508); test: CFTR cell surface levels using HRP-tagged ΔF508-CFTR expressing CFBE cells, in the presence of a co-corrector; assay type: cell-based; conditions: HRP-tagged ΔF508-CFTR CFBE cells, in the presence of 3 μM co-corrector; for EC50: read-out: EC50
T2 construct: host or cells: CFBE41o-, doxycycline-inducible
Outline: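 Chemiluminescent read-out of surface HRP (15 min, dark) after PBS washes. Activity is normalized as 100×(sample−DMSO)/(3 μM co-corrector alone−DMSO).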

T1 sequence (P13569 with tags, fused parts or gaps DEL508-508): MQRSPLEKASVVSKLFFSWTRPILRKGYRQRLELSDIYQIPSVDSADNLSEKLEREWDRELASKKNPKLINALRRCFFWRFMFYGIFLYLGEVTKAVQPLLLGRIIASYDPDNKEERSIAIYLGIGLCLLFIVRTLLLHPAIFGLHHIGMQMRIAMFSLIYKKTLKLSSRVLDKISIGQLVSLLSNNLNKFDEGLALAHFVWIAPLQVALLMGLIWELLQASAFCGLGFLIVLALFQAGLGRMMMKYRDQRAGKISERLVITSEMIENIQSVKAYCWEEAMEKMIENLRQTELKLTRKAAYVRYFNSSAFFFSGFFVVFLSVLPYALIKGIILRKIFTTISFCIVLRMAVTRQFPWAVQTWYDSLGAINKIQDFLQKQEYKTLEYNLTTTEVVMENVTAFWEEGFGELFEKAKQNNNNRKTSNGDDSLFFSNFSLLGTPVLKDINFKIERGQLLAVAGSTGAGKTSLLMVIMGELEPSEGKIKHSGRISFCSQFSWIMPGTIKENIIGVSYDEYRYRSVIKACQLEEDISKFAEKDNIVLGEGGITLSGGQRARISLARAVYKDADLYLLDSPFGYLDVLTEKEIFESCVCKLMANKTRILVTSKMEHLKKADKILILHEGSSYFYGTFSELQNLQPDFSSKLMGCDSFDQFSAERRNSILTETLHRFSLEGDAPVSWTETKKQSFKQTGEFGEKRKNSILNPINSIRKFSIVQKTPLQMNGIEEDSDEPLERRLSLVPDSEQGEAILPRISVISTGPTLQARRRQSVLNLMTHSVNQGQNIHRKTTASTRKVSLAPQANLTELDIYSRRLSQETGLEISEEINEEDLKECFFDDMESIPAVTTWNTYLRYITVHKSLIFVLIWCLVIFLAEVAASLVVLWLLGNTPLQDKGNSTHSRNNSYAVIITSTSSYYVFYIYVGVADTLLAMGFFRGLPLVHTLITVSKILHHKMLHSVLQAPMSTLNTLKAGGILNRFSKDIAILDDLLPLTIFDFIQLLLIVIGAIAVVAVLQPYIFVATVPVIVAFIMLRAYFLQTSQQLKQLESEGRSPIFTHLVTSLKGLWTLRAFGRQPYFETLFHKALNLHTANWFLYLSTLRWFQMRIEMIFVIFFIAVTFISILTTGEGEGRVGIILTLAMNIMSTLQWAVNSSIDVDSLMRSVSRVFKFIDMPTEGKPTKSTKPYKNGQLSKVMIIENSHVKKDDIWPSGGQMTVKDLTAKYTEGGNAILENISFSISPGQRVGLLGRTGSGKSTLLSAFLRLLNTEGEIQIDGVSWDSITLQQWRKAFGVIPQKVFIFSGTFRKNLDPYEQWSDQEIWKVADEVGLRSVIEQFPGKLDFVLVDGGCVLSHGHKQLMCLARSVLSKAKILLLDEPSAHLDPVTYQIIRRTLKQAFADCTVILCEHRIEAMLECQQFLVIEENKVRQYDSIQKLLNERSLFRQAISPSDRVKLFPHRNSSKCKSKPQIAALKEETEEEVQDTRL
T2 sequence (P13569 with tags, fused parts or gaps DEL508-508): as above

SMILES	% Activity at 3 μM (Ieq*) ([1]; without co-corrector) [%]	% Activation [2] [%]	EC50 [2] [nM]	% Activity at 10 μM (Ieq*) ([1]; 10 μM compound, without co-corrector) [%]	% Activity at 3 μM with co-corrector (Ieq*) ([1]; 3 μM compound with co-corrector) [%]
CC(C)c1nn(-c2cccc(N3CCC3)c2)c2nc(C(=O)NS(C)(=O)=O)cc(-c3ccc(N4CCOCC4)cc3)c12 [Compound 10, 1-[3-(azetidin-1-yl)phenyl]-N-(methanesulfonyl)-4-[4-(morpholin-4-yl)phenyl]-3-(propan-2-yl)-1H-pyrazolo[3,4-b]pyridine-6-carboxamide]	591.84	606.5	443		
CC(C)c1nn(C2CCCCC2)c2nc(C(=O)NS(C)(=O)=O)cc(-c3cnc(N4CCOCC4)nc3)c12 [Compound 11, 1-cyclohexyl-N-(methanesulfonyl)-4-[2-(morpholin-4-yl)pyrimidin-5-yl]-3-(propan-2-yl)-1H-pyrazolo[3,4-b]pyridine-6-carboxamide]	351	381.33	455		
Cc1nn(-c2ccccc2)c2nc(C(=O)NS(C)(=O)=O)cc(N3CCCCC3)c12 [Compound 13, N-(methanesulfonyl)-3-methyl-1-phenyl-4-(piperidin-1-yl)-1H-pyrazolo[3,4-b]pyridine-6-carboxamide]	74.32	341.75	1470	174.53	
CS(=O)(=O)NC(=O)c1cc(-c2ccc(N3CCC(C#N)CC3)nc2)c2c(C3CCC3)nn(C3CCCCC3)c2n1 [Compound 104, 4-[6-(4-cyanopiperidin-1-yl)pyridin-3-yl]-3-cyclobutyl-1-cyclohexyl-N-(methanesulfonyl)-1H-pyrazolo[3,4-b]pyridine-6-carboxamide]		411.33	344		102.36
